Test [1] concerns E.coli 1113. Nature of the test: Vitek 2 drug sensitivity test. On Sensibility: key: S: Drug sensitive; R: Drug resistance. The format is cell-based, Escherichia coli.
For test [2], the system named is S. aureus ATCC29213. Nature of the test: BMD susceptibility test. To be noted: unit assumed. The format is cell-based, Staphylococcus aureus.
The subject of test [3] is P. aeruginosa Pa3. In words: BMD susceptibility test. The test is classed as cell-based, Pseudomonas aeruginosa. To be noted: unit assumed.
For test [4], the system named is A. baumannii Ab19. Nature of the test: FaAST (FDAA metabolic labeling). The following applies: unit assumed. The test is classed as cell-based, Acinetobacter baumannii. In short, it runs like this: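 Bacteria diluted to OD600=0.05 in CAMHB were exposed to an antibiotic concentration series with Cy5-DAA probe […] for 2 h in the dark. Per-sample fluorescence was read by flow cytometry after PBS dilution. MIC was taken from the antibiotic concentration–fluorescence curve.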

Test [5] deals with A. baumannii Ab19. In words: BMD susceptibility test. The test is classed as cell-based, Acinetobacter baumannii. To be noted: unit assumed.
For test [6], the system named is Acinetobacter baumannii ABA19. In words: VITEK drug sensitivity test. The test is classed as cell-based. To be noted: unit assumed.
In test [7] the test system is S. aureus Sa23. In words: BMD susceptibility test. The format is cell-based, Staphylococcus aureus. To be noted: unit assumed.
Test [8] relates to alveolar lavage fluid sample 0203, K. pneumoniae. Nature of the test: FaAST (FDAA) susceptibility test of patient alveolar lavage fluid. The format is cell-based, Klebsiella pneumoniae. The following applies: unit assumed. In short, it runs like this:
(§1)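 Patient BALF mixed 1:1 with double-strength CAMHB, then combined with antibiotics at graded concentrations and Cy5-DAA probe (0.15 mM final). Cultured 2 h in the dark, diluted in PBS, and per-sample fluorescence intensity read by flow cytometry as the susceptibility read-out.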

Test [9] deals with alveolar lavage fluid sample 0226, K. pneumoniae. The description is as above. The format is cell-based, Klebsiella pneumoniae. To be noted: unit assumed. Put shortly: as §1
Test [10] has as its system bacteria contained in alveolar lavage fluid. Nature of the test: Vitek 2 drug sensitivity test of alveolar lavage fluid. On Sensibility: key: S: Drug sensitive; R: Drug resistance. The format is cell-based.
For test [11], the system named is alveolar lavage fluid sample 0206, A. baumannii. In words: BMD susceptibility test of patient alveolar lavage fluid. The format is cell-based, Acinetobacter baumannii. To be noted: unit assumed. An excerpt: (§2) The results of antimicrobial susceptibility test of alveolar lavage fluid of seven patients using FDAA and BMD methods are shown in the following table. The drug-resistant bacteria are shown in bold.

The test system of test [12] is alveolar lavage fluid sample 0219, A. baumannii. Described as above. The format is cell-based, Acinetobacter baumannii. The following applies: unit assumed.
Description: as §2

In test [13] the test system is alveolar lavage fluid sample 0130, A. baumannii. The description is as above. The format is cell-based, Acinetobacter baumannii. The following applies: unit assumed.
Description: as §2

Test [14] concerns E. faecalis ATCC29212. In words: FaAST (FDAA metabolic labeling method). The test is classed as cell-based, Enterococcus faecalis. To be noted: unit assumed. In short, it runs like this: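 Bacteria at OD600=0.05 in CAMHB exposed to antibiotic concentration gradients with Cy5-DAA probe […], 2 h in the dark. Fluorescence read by flow cytometry after PBS dilution; MIC taken from the curve of fluorescence intensity versus antibiotic concentration.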

For test [15], the system named is E. coli Ec11. In words: BMD susceptibility test. The test is classed as cell-based, Escherichia coli. To be noted: unit assumed.
Test [16] relates to P. aeruginosa Pa3. Nature of the test: FaAST (FDAA metabolic labeling). The test is classed as cell-based, Pseudomonas aeruginosa. To be noted: unit assumed. The protocol:
(§3) The specific experimental steps are as follows: • 1. Take the colony to be tested that has been cultured overnight on the plate and fully mix it in normal saline to make a uniform bacterial solution. Dilute it into CAMHB medium to make a bacterial solution with OD600=0.05. • 2. Add 45 μl antibiotic solutions to be tested of different concentrations to 96-well plates (see Table 3 for antibiotic concentration gradient settings). • 3. Add 50 μl of bacterial solution prepared in Step 1 to the 96-well plate and mix well. • 4.5 μl of 10 mM Cy5-DAA probe was added to each well (final concentration was 0.15 mM, and its structure was shown in FIG. 1). After mixing, the probe was incubated for 2 hours in the dark. • 5. After dilution with 200 μl PBS solution, the fluorescence intensity of each sample was detected by flow cytometry. The flow detection results are shown in the attached FIG. 4-5, showing the curve of antibiotic concentration gradient and fluorescence intensity, and the MIC (minimum inhibitory concentration) is obtained by referring to this curve.
(§4) Antibiotic resistant strains are shown in bold in the table below.

Test [17] relates to P. aeruginosa Pa2. Nature of the test: FaAST (FDAA metabolic labeling). The test is classed as cell-based, Pseudomonas aeruginosa. The following applies: unit assumed. Here is the method: as §3, §4
Test [18] concerns Pa ATCC 27853. Nature of the test: FaAST (FDAA metabolic labeling). The following applies: unit assumed. The format is cell-based, Pseudomonas aeruginosa. Here is the method:
as §3, §4

The test system of test [19] is K. pneumoniae Kp9. In words: BMD susceptibility test. The format is cell-based, Klebsiella pneumoniae. To be noted: unit assumed.
Test [20] concerns A. baumannii Ab16. Nature of the test: FaAST (FDAA metabolic labeling). The format is cell-based, Acinetobacter baumannii. The following applies: unit assumed. In short, it runs like this: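 Bacteria at OD600=0.05 in CAMHB mixed with antibiotic dilutions plus Cy5-DAA probe at 0.15 mM final, then incubated 2 h in the dark. Cell-wall labeling fluorescence measured by flow cytometry after PBS dilution.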

Bounds are passed on as bounds.

A word on the MIC: it is the least concentration at which growth counts as inhibited. Lower therefore signals greater potency.

On to `C[C@H]1COc2c(N3CCN(C)CC3)c(F)cc3c(=O)c(C(=O)O)cn1c23` [Levofloxacin, levofloxacin], for which the MIC, Vitek 2 in [1] was above 8 µg/mL. Moreover, the Sensibility entry in test [1] and in test [10] was “R” throughout. Moreover, the BMD (MIC) in [2] was at most 0.25 µg/mL; in test [3], 0.5 µg/mL; in test [5], at most 0.25 µg/mL; in test [7], 1 µg/mL; in [11] it was 32 µg/mL; in [12], 32 µg/mL. The BMD (MIC) in test [13] is 64 µg/mL; in [15], at most 0.25 µg/mL; in test [19], 32 µg/mL. Further, the FaAST (MIC) in test [4] was 0.5 µg/mL; in test [8] it was 0.25 µg/mL; in test [9] it was 0.25 µg/mL; in test [14], 1 µg/mL; in test [16] it was 0.5 µg/mL; in test [17], 0.5 µg/mL. The FaAST (MIC) in test [18] was determined as 0.5 µg/mL; in [20], 32 µg/mL. The MIC, VITEK in [6] is at most 0.25 µg/mL. Besides, the MIC in test [10] is at least 8 µg/mL.

For the origin of these results see patent US20240240224A1, “FLUORESCENT D-TYPE AMINO ACID METABOLISM MARKER-BASED METHOD FOR DETECTING ANTIBACTERIAL DRUG SENSITIVITY TEST” (priority 2020, published 2024).
